These results are taken from patent publication EP4656654A1, “SOMATOSTATIN PEPTIDE ANALOGUE, CHELATE AND USE THEREOF” (Qianhangjiang Pharmaceutical Co., Ltd., priority 2023, dated 2025).

Molecules are shown by their SMILES. pEC50: −log10 of the molar value. Like-named read-outs stand apart in the source and are kept apart here. Numbered stars: 1 amine (or outer) side, 2 acyl side, 3 side chain; on linkers, the order of the positions; unused ones are H or OH. Bridge positions count the residues as written; N and C are the ends. Square brackets hold non-standard residues; d marks the D form. Peptide text beside a SMILES is read from it. * marks the point of attachment. Phe(3-CH2NH2) = O=C([C@H](Cc1cccc(CN[*:3])c1)N[*:1])[*:2]; DOTA = O=C(O)CN1CCN(CC(=O)O)CCN(CC(=O)*)CCN(CC(=O)O)CC1; X2 = CC(C)(CN)CC[C@H](N[*:1])C(=O)[*:2]; X1 = CC(CN)CC[C@H](N[*:1])C(=O)[*:2]; Thr(ol) = C[C@@H](O)[C@H](N)CO

The target of the test is T1, SSTR2 (Homo sapiens, UniProt P30874).
T1 construct: host or cells: CHO-K1
The test is described as follows: competitive radioligand binding assay (125I-Tyr11-Somatostatin-14) on membranes of SSTR2-overexpressing CHO-K1 cells. The settings on record: for Bottom: parameter A, bottom of fitted % Effect curve; for Top: parameter B, top of fitted % Effect curve; for Hill slope: parameter D of fitted curve; for pEC50: radioligand 125I-Tyr11-Somatostatin-14, SSTR2 CHO-K1 cell membrane. On the procedure:
A competitive radioligand binding assay is utilized to measure the binding affinity of the somatostatin analogs of Formula II of the present invention. SSTR2-overexpressing CHO-K1 cells (Hunter Express SSTR2 CHO-K1; DiscoverX) are used in the radioligand competitive binding assay, with ^125I-Tyr^11-Somatostatin-14 (PerkinElmer) as the radioligand. The assay is performed as follows:
SSTR2-overexpressing CHO-K1 cells (from Discover X) were cultured in complete medium (F12 basal medium with 10% FBS and 1% P/S [100 U/mL penicillin and 100 µg/mL streptomycin]) in a 37°C incubator with 5% CO2. When the cell confluency reached 80-90%, the cells were washed twice with pre-cooled PBS. The cells were then scraped off with a cell scraper and transferred to a 50 mL centrifuge tube, followed by centrifugation at 500×g and 4°C for 10 minutes. The supernatant was discarded, and the cell pellet was retained. Cell membrane lysis buffer (containing 25 mM HEPES, 1 mM EDTA, 2 mM MgCl2, and 1× protease inhibitor, pH = 7.4) was added at a ratio of 4 × 10^7 cells/10 mL and placed on ice for 10 minutes. The cells were then disrupted using an IKA disruptor. The operating procedure was 15,000 rpm for 10 seconds, repeated twice. The disrupted cell suspension was centrifuged at 4°C and 650×g for 5 minutes. The supernatant was transferred to a new centrifuge tube and centrifuged at 13,000 rpm and 4°C for 30 minutes. The supernatant was discarded, and the cell membrane pellet was resuspended in 1.6 mL of resuspension buffer, which was cell membrane lysis buffer supplemented with 10% sucrose. The cell membrane lysis buffer was repeatedly aspirated 4 times with a 27-gauge needle to break the DNA. The cell membrane extract was measured for protein concentration using the BCA method and aliquoted and stored at -80°C.
• (1) Dilution of Compound: The assay buffer used contains 50 mM Hepes, 5 mM MgCl2, 1 mM CaCl2, and 0.5% BSA, pH = 7.4, and the buffer is filtered. The assay buffer is kept at 4°C. The ligand solution is serially diluted using an Agilent Bravo. Each test compound is diluted […] in succession. The eight binding concentrations of typical compounds are: 50 nM, 12.5 nM, 3.13 nM, 0.78 nM, 0.20 nM, 0.05 nM, 12.2 pM, and 3.05 pM. The affinity of each concentration is measured twice. Transfer 1 µL of each diluted compound to the corresponding wells of a 96-well V-bottom plate. • (2) Preparation of 125I-SST: The stock solution of 125I-SST was diluted to 3 nM (10×) with binding buffer (containing 50 mM Hepes, 5 mM MgCl2, 1 mM CaCl2, and 0.5% BSA, pH = 7.4, stored at 4°C). Transfer 10 µL of the solution to the corresponding compound well. • (3) Binding Experiment: The extracted cell membrane was diluted to 2.5 µg/90 µL with binding buffer and added to the corresponding wells. The mixture was incubated at 500 rpm on a 25°C shaker for 2 hours. The membrane complex was collected into a 0.5% PEI pre-coated GF/B plate using a Cell Harvester, and rinsed 3 times per well with 200 µL of pre-cooled buffer (4°C) (the same buffer used to dilute the compound). The plate was dried at 37°C for 2 hours. After adding 50 µL of liquid scintillation fluid (MicroScint20, Perkin Elmer) to each well and incubating for 30 minutes, the radioactivity was measured using a Topcount plate reader for 30 seconds per well.
For each compound, its 8-point reading data (2× of 8 readings) were imported into XLfit software and fitted to the sigmoidal curve. The EC50 of the compound for SSTR2 was calculated based on the mathematically optimal sigmoidal dose-response model equation: y−A + ((B−A))/(1 + (((C)/(x)))^D) [formula] where A represents the bottom of the curve, B represents the top of the curve, C represents the relative EC50, D represents the Hill slope, y represents the percentage effect value (% Effect) of the curve fitting, and x represents the molar concentration.

Setting [1] is: concentration x calculated from the fit at y = 50% effect, read-out: Absolute EC50.
[2] abbreviates: parameter C of sigmoidal fit, 8 concentrations in duplicate, read-out: Relative EC50.

T1 sequence (P30874 whole entry): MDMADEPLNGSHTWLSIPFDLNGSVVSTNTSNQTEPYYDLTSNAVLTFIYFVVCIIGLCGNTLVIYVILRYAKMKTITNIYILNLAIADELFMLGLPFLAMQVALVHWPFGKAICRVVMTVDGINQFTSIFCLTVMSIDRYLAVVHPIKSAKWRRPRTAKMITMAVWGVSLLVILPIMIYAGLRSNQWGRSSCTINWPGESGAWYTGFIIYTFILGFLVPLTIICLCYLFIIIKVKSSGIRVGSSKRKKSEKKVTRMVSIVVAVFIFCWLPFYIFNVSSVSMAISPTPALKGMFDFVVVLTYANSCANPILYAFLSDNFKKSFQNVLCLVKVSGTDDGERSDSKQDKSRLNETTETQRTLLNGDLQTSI

For `C[C@@H](O)[C@@H]1NC(=O)[C@H](C2CCCC(CN)C2)NC(=O)[C@@H](Cc2c[nH]c3ccccc23)NC(=O)[C@H](Cc2ccccc2)NC(=O)[C@@H](NC(=O)[C@H](N)Cc2ccccc2)CSSC[C@@H](C(=O)N[C@H](CO)[C@@H](C)O)NC1=O` (single isomer, unassigned) [Compound 7p2], the Bottom turned out to be 10.8%, the Top is 99.5% and the Hill slope was found to be 1.08.

`CC(CN)CC[C@@H]1NC(=O)[C@@H](Cc2c[nH]c3ccccc23)NC(=O)[C@H](Cc2ccccc2)NC(=O)[C@@H](NC(=O)[C@H](N)Cc2ccccc2)CSSC[C@@H](C(=O)N[C@H](CO)[C@@H](C)O)NC(=O)[C@H]([C@@H](C)O)NC1=O` (some centres unmarked) [Compound 3] (H-[dF]CF[dW][X1]TC[Thr(ol)]; disulfide 2-7): the pEC50 runs as follows: under setting [1], 9.60; under setting [2], 9.54.

The compound `C[C@@H](O)[C@H](NC(=O)[C@@H]1CSSC[C@H](NC(=O)[C@@H](Cc2ccccc2)NC(=O)CN2CCN(CC(=O)O)CCN(CC(=O)O)CCN(CC(=O)O)CC2)C(=O)N[C@@H](Cc2ccc(O)cc2)C(=O)N[C@H](Cc2c[nH]c3ccccc23)C(=O)N[C@@H](CCC(C)(C)CN)C(=O)N[C@@H]([C@@H](C)O)C(=O)N1)C(=O)O` [Compound 6] ({DOTA}-[dF]CY[dW][X2]TCT-OH; disulfide 2-7; N-terminus and C-terminus assumed) returned a Bottom of 13.2%, a Top of 98.3% and a Hill slope of 0.88.

With `C[C@@H](O)[C@@H]1NC(=O)[C@H](CCCCCN)NC(=O)[C@@H](Cc2c[nH]c3ccccc23)NC(=O)[C@H](Cc2ccccc2)NC(=O)[C@@H](NC(=O)[C@H](N)Cc2ccccc2)CSSC[C@@H](C(=O)N[C@H](CO)[C@@H](C)O)NC1=O` [Compound 1], the pEC50 reads like this: under setting [1], 9.13; under setting [2], 8.89.

For `C[C@@H](O)[C@@H]1NC(=O)[C@H](CCC(C)(C)CN)NC(=O)[C@@H](Cc2c[nH]c3ccccc23)NC(=O)[C@H](Cc2ccccc2)NC(=O)[C@@H](NC(=O)[C@H](N)Cc2ccccc2)CSSC[C@@H](C(=O)N[C@H](CO)[C@@H](C)O)NC1=O` [Compound 2] (H-[dF]CF[dW][X2]TC[Thr(ol)]; disulfide 2-7), the pEC50 by setting is: under setting [1], 9.00; under setting [2], 8.92.

`C[C@@H](O)[C@@H]1NC(=O)[C@H](Cc2cccc(CN)c2)NC(=O)[C@@H](Cc2c[nH]c3ccccc23)NC(=O)[C@H](Cc2ccccc2)NC(=O)[C@@H](NC(=O)[C@H](N)Cc2ccccc2)CSSC[C@@H](C(=O)N[C@H](CO)[C@@H](C)O)NC1=O` [Compound 5] (H-[dF]CF[dW][Phe(3-CH2NH2)]TC[Thr(ol)]; disulfide 2-7): the Bottom is recorded as 8.7%, the Top turned out to be 100.0% and the Hill slope is 0.84.

Regarding `C[C@@H](O)[C@@H]1NC(=O)[C@H](C2CCCC(CN)C2)NC(=O)[C@@H](Cc2c[nH]c3ccccc23)NC(=O)[C@H](Cc2ccccc2)NC(=O)[C@@H](NC(=O)[C@H](N)Cc2ccccc2)CSSC[C@@H](C(=O)N[C@H](CO)[C@@H](C)O)NC1=O` (single isomer, unassigned) [Compound 4], the Bottom is listed as 11.7%, the Top is 99.9% and the Hill slope is reported as 1.07. For the same compound, the pEC50 under setting [1] was 10.15. The pEC50 under setting [2] was 10.04.

One may read the Hill slope as a measure of the steepness of the concentration-response curve. One may read the pEC50 as the negative decadic logarithm of the EC50, by convention in mol/L.
